Experimental data from publication PMC6458995, “MAP4K4 Inhibition Promotes Survival of Human Stem Cell-Derived Cardiomyocytes and Reduces Infarct Size In Vivo” (Cell Stem Cell, 2019).

Tests used:
endogenous MAP4K4 = molecular target: T1, endogenous MAP4K4 (Homo sapiens, UniProt O95819); experiment: In-cell MAP4K4 activity, immune complex kinase assay in HEK293T cells; type: cell-based; settings: HEK-293T, 1 h after treatment
T1 construct: endogenous in cells; host or cells: HEK293T
Procedure: MAP4K4 was precipitated using M2 antibody to the FLAG epitope, or antibody to endogenous MAP4K4, and protein G-Sepharose. Precipitates were washed twice in lysis buffer, twice with 500 mM LiCl, 100 mM Tris-HCl, pH 7.6, 0.1% Triton X-100, twice with kinase buffer (20 mM MOPS, pH 7.6, 2 mM EGTA, 10 mM MgCl2, 1 mM dithiothreitol, 0.1% Triton X-100, 1 mM Na3VO4), and were then mixed with 10 μg of myelin basic protein (Invitrogen) as substrate, 15 μM ATP, and 10 μCi [γ-^32P]ATP in […] of kinase buffer for 30 min at 30°C ([Yao et al., 1999]). His-MKK6 was used as the substrate for TAK1 ([Zhang et al., 2000]). Reaction mixtures were resolved by SDS-polyacrylamide gel electrophoresis, then were analyzed by western blotting and autoradiography.

rat ventricular myocytes = experiment: Rat cardiac muscle cell death induced by H2O2 (sub-G1 DNA, flow cytometry); type: cell-based
Procedure: Ventricular myocytes from 1 to 3 day-old Sprague-Dawley rats were enzymatically dissociated, purified by Percoll gradient centrifugation and pre-plating, and cultured as described ([Oh et al., 2003]). To detect hypodiploid DNA, flow cytometry was performed (XL or LSRII, BD Biosciences), using propidium iodide to measure DNA content and sampling > 5000 cells for each histogram. Myocyte identity was confirmed using FITC-conjugated MF-20 antibody to sarcomeric MyHC (R&D Systems). To detect dissipation of mitochondrial membrane potential (ΔΨm), cells were incubated for 60 min in 5 μg ml^-1 5, 5′, 6, 6’-tetrachloro-1, 1’, 3, 3′-tetraethylbenzimidazolyl carbocyanine iodide (DePsipher; R&D Systems). When ΔΨm is intact, mitochondrial uptake and aggregation of the dye result in red fluorescence; when ΔΨm is disturbed, the dye diffuses to the cytoplasm and reverts to its monomeric green form. Myocyte identity was confirmed using mouse antibody to sarcomeric tropomyosin (Sigma-Aldrich) conjugated with Texas Red-X (Molecular Probes).

iCell cardiomyocytes = experiment: Human cardiac muscle cell death, DRAQ7 uptake (high-content); type: cell-based; settings: H2O2, micromolar concentrations
Procedure: iCell cardiomyocytes were thawed, transferred to Plating Medium, counted using a Vi-CELL XR cell viability analyzer (Beckman Coulter), and seeded into 24-well plates for RNA collection (60,000 cells well^-1; Greiner) or μClear half-area 96-well plates for gene silencing (10,000 cells well^-1; Greiner). Plates were coated with 10 μg ml^-1 collagen type I (BD Biosciences). Cells were cultured in iCell Cardiomyocytes Plating Medium for 2 d and in Maintenance Medium thereafter. For compound dose-response comparisons, the cells were deposited in Plating Medium at 10,000 cells well^-1 in 0.1% (w/v) gelatin-coated 384-well white Greiner plates and were cultured as above for 8 d before treatment. […]
To measure loss of membrane integrity, iCell hiPSC-CMs were co-stained for 15 min at 37°C with 0.3 μM DRAQ7 (Biostatus), a cell-impermeable dye, and with 0.8 μM Hoescht 33342 (Molecular Probes), as the membrane-permeable dye. Dyes were removed and the nuclear fluorescence scored (typically, 15,000-20,000 cells well^-1) using a Cellomics ArrayScan VTI High Content Screening platform. The line harbors a cardiomyocyte-specific Myh6-driven reporter gene for monomeric red fluorescent protein (RFP), enabling cell death to be scored exclusively in the myocyte population. Successfully transduced cells were identified on the basis of TurboGFP fluorescence. […]

[1] = tested on: S. typhimurium TA98 and TA100; experiment: Ames genotoxicity reverse mutation assay
Procedure: Approximately 10^7 bacteria were exposed in triplicate to the test agent (six concentrations, 7.8-250 μg ml^-1), a vehicle control (vehicle) and a positive control for 90 min in low-histidine medium (sufficient for about 2 doublings.) The strains used were S. typhimurium TA98 (hisD3052, rfa, uvrB / pKM101; detects frameshift mutations) and TA100: hisG45, rfa, uvrB / pKM101; detects base-pair substitutions). The cultures were then diluted into indicator medium lacking histidine, dispensed into 384-well plates, and incubated for 48 hr at 37°C. The test was performed in the absence and presence of S9 metabolic activation, to identify pro-mutagens as well as directly acting mutagens. Only cells that underwent reversion grow, resulting in a color change. A two-fold increase over the vehicle control in the number of colonies indicates a positive response.

NUAK = experiment: HTRF Transcreener ADP kinase assay; type: biochemical, human
cardiac MAP4K4 = cardiac MAP4K4 (Mus musculus, UniProt P97820); experiment: Target engagement ex vivo (block to desthiobiotin-ATP binding); settings: adult mouse cardiac lysates; versus F1386-0303
Procedure: Lysates were prepared and assayed using a desthiobiotin-ATP probe Kinase Enrichment Kit (Thermo Fisher Scientific) ([Patricelli et al., 2011]). In brief, tissue samples (100-120 mg) were cut into small pieces and resuspended in 1 mL of Lysis Buffer containing protease and phosphatase inhibitors. After homogenization (30 s on ice), the lysates were centrifuged (16,000 x g at 4°C for 10 min) and a buffer-exchange to Reaction Buffer was performed, to remove endogenous ATPs. Protein concentrations were measured by the BCA assay (Thermo Fisher Scientific). Compounds were added to 500 μL of lysate at 2 mg/ml in presence of 20 mM MgCl2 and incubated for 10 min at room temperature. The ActivX desthiobiotin-ATP probe (5 μM) was added, and samples were incubated for 10 min. Reactions were stopped by adding 500 μL of 8 M Urea/Lysis Buffer, and labeled kinases were captured by incubating samples with 60 μL of 50% Streptavidin-Agarose beads. Samples were incubated with constant inversion for 2 hr at room temperature. Samples were centrifuged (1000 x g for 1 min) and washed three times with 500 μL of 4 M Urea/Lysis Buffer. Captured kinases were eluted by boiling in 30 μL of Laemmli sample buffer for 15 min. Samples were analyzed by western blotting for MAP4K4 and for Src or p38 and were normalized to the capture of the untargeted control kinase.

T1 sequence (O95819 whole entry): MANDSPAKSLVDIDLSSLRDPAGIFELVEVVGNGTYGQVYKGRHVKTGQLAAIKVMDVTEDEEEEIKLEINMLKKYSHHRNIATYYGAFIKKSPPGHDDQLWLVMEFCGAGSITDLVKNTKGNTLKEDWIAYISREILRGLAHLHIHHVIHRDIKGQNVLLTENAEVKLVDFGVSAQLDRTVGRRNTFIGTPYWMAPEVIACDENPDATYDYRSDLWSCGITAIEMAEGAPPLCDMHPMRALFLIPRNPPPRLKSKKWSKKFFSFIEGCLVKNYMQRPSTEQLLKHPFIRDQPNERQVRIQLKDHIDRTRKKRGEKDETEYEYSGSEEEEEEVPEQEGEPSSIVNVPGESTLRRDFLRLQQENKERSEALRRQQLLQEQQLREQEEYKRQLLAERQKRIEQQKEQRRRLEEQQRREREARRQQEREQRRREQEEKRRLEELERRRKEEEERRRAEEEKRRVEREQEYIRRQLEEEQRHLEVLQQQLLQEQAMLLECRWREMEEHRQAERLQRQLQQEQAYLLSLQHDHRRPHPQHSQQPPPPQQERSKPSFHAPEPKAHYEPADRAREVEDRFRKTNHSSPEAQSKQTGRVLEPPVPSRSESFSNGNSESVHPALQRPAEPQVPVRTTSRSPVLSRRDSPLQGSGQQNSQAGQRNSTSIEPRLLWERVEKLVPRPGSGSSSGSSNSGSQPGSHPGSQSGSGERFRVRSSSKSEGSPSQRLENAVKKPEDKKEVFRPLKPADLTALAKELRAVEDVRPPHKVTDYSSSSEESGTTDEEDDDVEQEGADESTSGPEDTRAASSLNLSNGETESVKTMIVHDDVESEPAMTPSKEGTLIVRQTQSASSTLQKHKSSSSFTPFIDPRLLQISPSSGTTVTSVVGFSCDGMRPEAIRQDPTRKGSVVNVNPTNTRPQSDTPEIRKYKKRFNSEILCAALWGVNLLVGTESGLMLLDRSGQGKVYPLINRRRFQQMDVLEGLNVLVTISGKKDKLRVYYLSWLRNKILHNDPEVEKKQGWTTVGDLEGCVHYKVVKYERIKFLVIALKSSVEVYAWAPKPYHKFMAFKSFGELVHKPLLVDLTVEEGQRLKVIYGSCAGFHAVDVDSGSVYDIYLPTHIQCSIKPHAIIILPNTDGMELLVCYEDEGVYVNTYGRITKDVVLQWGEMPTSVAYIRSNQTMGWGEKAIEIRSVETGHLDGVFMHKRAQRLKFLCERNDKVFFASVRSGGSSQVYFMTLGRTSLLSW
Sequence of cardiac MAP4K4 (P97820 2-310 limits assumed): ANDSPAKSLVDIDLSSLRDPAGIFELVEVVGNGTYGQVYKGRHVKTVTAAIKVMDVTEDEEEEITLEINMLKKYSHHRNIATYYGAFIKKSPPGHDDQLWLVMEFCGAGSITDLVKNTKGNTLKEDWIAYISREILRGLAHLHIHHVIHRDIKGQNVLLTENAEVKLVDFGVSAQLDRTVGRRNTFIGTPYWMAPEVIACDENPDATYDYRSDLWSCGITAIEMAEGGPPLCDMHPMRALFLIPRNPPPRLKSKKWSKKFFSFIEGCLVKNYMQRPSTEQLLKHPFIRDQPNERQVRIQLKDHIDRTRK

| Structure (SMILES) | inhibition at 10 µM (endogenous MAP4K4) [%] | rat cardiomyocyte death (rat ventricular myocytes; H2O2, even at 1 μM) | inhibition at 10 µM (rat ventricular myocytes; Ventricular myocyte, rat ventricular myocytes, 10 μM) [%] | adverse effect of compound (rat ventricular myocytes; rat ventricular myocytes, any of the concentrations (1-10 μM)) | suppression of human cardiac muscle cell death (DRAQ7 uptake) (iCell cardiomyocytes) | Ames test of mutagenic potential [1] | Fold Selectivity (NUAK; NUAK versus MAP4K4) | DMX-5804 vs F1386-0303 (NUAK; ratio of fold selectivity, NUAK) | greater affinity over the earlier compound (target engagement ex vivo) (cardiac MAP4K4) [×] |
| --- | --- | --- | --- | --- | --- | --- | --- | --- | --- |
| Oc1ncnc2c1c(-c1ccccc1)cn2-c1ccccc1 [F1386-0303, 5,7-diphenyl-7H-pyrrolo[2,3-d]pyrimidin-4-ol] | 70 | inhibited | ~50 | No adverse effect | highly protective | – | – | – | – |
| COCCOc1ccc(-c2cn(-c3ccccc3)c3nc[nH]c(=O)c23)cc1 [DMX-5804, 5-[4-(2-methoxy-ethoxy)-phenyl]-7-phenyl-3,7-dihydro-pyrrolo[2,3-d]pyrimidin-4-one] | – | – | – | – | – | no off-target effect | 47 | 2.35 | 10 |
